Assay results: PubChem BioAssay (NCI)
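Test compounds were applied to cells in 96-well plates for 48 hours at 5 doses. The concentration for full growth arrest is given as TGI.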

Tests used:
Experiment in all cases: NCI tumour cell line growth inhibition, 48 h
XF 498 CNS = test system: XF 498 CNS
HCC-2998 colon = test system: HCC-2998 colon
LOX IMVI melanoma = test system: LOX IMVI melanoma
HCT-15 colon = test system: HCT-15 colon
HL-60(TB) leukemia = test system: HL-60(TB) leukemia
OVCAR-4 ovarian = test system: OVCAR-4 ovarian
RXF 393 renal = test system: RXF 393 renal
NCI-H460 lung = test system: NCI-H460 lung
P388/ADR leukemia = test system: P388/ADR leukemia
OVCAR-3 ovarian = test system: OVCAR-3 ovarian
MCF7 breast = test system: MCF7 breast
SN12K1 renal = test system: SN12K1 renal
M19-MEL melanoma = test system: M19-MEL melanoma
SF-295 CNS = test system: SF-295 CNS
MDA-MB-231 breast = test system: MDA-MB-231 breast
HOP-62 NSCLC = test system: HOP-62 NSCLC
SK-MEL-28 melanoma = test system: SK-MEL-28 melanoma
SW-620 colon = test system: SW-620 colon
PC-3 prostate = test system: PC-3 prostate
HT29 colon = test system: HT29 colon
KM20L2 colon = test system: KM20L2 colon
OVCAR-8 ovarian = test system: OVCAR-8 ovarian
786-0 renal = test system: 786-0 renal
SNB-78 CNS = test system: SNB-78 CNS
UACC-257 melanoma = test system: UACC-257 melanoma
KM12 colon = test system: KM12 colon
NCI/ADR-RES ovarian = test system: NCI/ADR-RES ovarian
DMS 114 small cell lung = test system: DMS 114 small cell lung
CCRF-CEM leukemia = test system: CCRF-CEM leukemia
K-562 leukemia = test system: K-562 leukemia
IGROV1 ovarian = test system: IGROV1 ovarian
MDA-N = test system: MDA-N
UO-31 renal = test system: UO-31 renal
MDA-MB-435 = test system: MDA-MB-435
U251 CNS = test system: U251 CNS
MALME-3M melanoma = test system: MALME-3M melanoma
M14 melanoma = test system: M14 melanoma
HOP-18 NSCLC = test system: HOP-18 NSCLC
COLO 205 colon = test system: COLO 205 colon
NCI-H226 lung = test system: NCI-H226 lung
MOLT-4 leukemia = test system: MOLT-4 leukemia
DMS 273 small cell lung = test system: DMS 273 small cell lung
NCI-H23 lung = test system: NCI-H23 lung
T-47D breast = test system: T-47D breast
DLD-1 colon = test system: DLD-1 colon
UACC-62 melanoma = test system: UACC-62 melanoma
ACHN renal = test system: ACHN renal
HOP-92 NSCLC = test system: HOP-92 NSCLC
OVCAR-5 ovarian = test system: OVCAR-5 ovarian
A549 NSCLC = test system: A549 NSCLC
SN12C renal = test system: SN12C renal
HS 578T breast = test system: HS 578T breast
HCT-116 colon = test system: HCT-116 colon
BT-549 breast = test system: BT-549 breast
SF-539 CNS = test system: SF-539 CNS
DU-145 prostate = test system: DU-145 prostate
EKVX NSCLC = test system: EKVX NSCLC
CAKI-1 renal = test system: CAKI-1 renal
SK-MEL-2 melanoma = test system: SK-MEL-2 melanoma
TK-10 renal = test system: TK-10 renal
SK-MEL-5 melanoma = test system: SK-MEL-5 melanoma
NCI-H522 lung = test system: NCI-H522 lung
P388 leukemia = test system: P388 leukemia
A498 renal = test system: A498 renal
SK-OV-3 ovarian = test system: SK-OV-3 ovarian
SNB-19 CNS = test system: SNB-19 CNS
SF-268 CNS = test system: SF-268 CNS
SNB-75 CNS = test system: SNB-75 CNS
RPMI-8226 leukemia = test system: RPMI-8226 leukemia

## COc1cc(/C=C/C(=O)Oc2ccccc2)ccc1C(=O)O/C=C/c1ccccc1
XF 498 CNS
  TGI: > 100 µM
HCC-2998 colon
  TGI: > 100 µM
LOX IMVI melanoma
  TGI: > 100 µM
HCT-15 colon
  TGI: > 100 µM
HL-60(TB) leukemia
  TGI: > 100 µM
OVCAR-4 ovarian
  TGI: > 100 µM
RXF 393 renal
  TGI: > 100 µM
NCI-H460 lung
  TGI: > 100 µM
P388/ADR leukemia
  TGI: > 100 µM
OVCAR-3 ovarian
  TGI: > 31.6 µM
MCF7 breast
  TGI: > 100 µM
SN12K1 renal
  TGI: > 100 µM
M19-MEL melanoma
  TGI: > 100 µM
SF-295 CNS
  TGI: > 100 µM
MDA-MB-231 breast
  TGI: > 100 µM
HOP-62 NSCLC
  TGI: > 100 µM
SK-MEL-28 melanoma
  TGI: > 100 µM
SW-620 colon
  TGI: > 100 µM
PC-3 prostate
  TGI: > 100 µM
HT29 colon
  TGI: > 100 µM
KM20L2 colon
  TGI: > 100 µM
OVCAR-8 ovarian
  TGI: > 100 µM
786-0 renal
  TGI: > 100 µM
SNB-78 CNS
  TGI: > 100 µM
UACC-257 melanoma
  TGI: > 100 µM
KM12 colon
  TGI: > 100 µM
NCI/ADR-RES ovarian
  TGI: > 100 µM
DMS 114 small cell lung
  TGI: > 100 µM
CCRF-CEM leukemia
  TGI: > 100 µM
K-562 leukemia
  TGI: > 100 µM
IGROV1 ovarian
  TGI: > 100 µM
MDA-N
  TGI: > 100 µM
UO-31 renal
  TGI: > 100 µM
MDA-MB-435
  TGI: > 100 µM
U251 CNS
  TGI: > 100 µM
MALME-3M melanoma
  TGI: > 100 µM
M14 melanoma
  TGI: > 100 µM
HOP-18 NSCLC
  TGI: > 100 µM
COLO 205 colon
  TGI: > 100 µM
NCI-H226 lung
  TGI: > 100 µM
MOLT-4 leukemia
  TGI: > 100 µM
DMS 273 small cell lung
  TGI: > 100 µM
NCI-H23 lung
  TGI: > 100 µM
T-47D breast
  TGI: > 100 µM
DLD-1 colon
  TGI: > 100 µM
UACC-62 melanoma
  TGI: > 100 µM
ACHN renal
  TGI: > 100 µM
HOP-92 NSCLC
  TGI: > 100 µM
OVCAR-5 ovarian
  TGI: > 100 µM
A549 NSCLC
  TGI: > 100 µM
SN12C renal
  TGI: > 100 µM
HS 578T breast
  TGI: > 100 µM
HCT-116 colon
  TGI: > 100 µM
BT-549 breast
  TGI: > 100 µM
SF-539 CNS
  TGI: > 100 µM
DU-145 prostate
  TGI: > 100 µM
EKVX NSCLC
  TGI: > 100 µM
CAKI-1 renal
  TGI: > 100 µM
SK-MEL-2 melanoma
  TGI: > 100 µM
TK-10 renal
  TGI: > 100 µM
SK-MEL-5 melanoma
  TGI: > 100 µM
NCI-H522 lung
  TGI: > 100 µM
P388 leukemia
  TGI: > 100 µM
A498 renal
  TGI: > 21.5 µM
SK-OV-3 ovarian
  TGI: > 100 µM
SNB-19 CNS
  TGI: > 100 µM
SF-268 CNS
  TGI: > 100 µM
SNB-75 CNS
  TGI: > 100 µM
RPMI-8226 leukemia
  TGI: > 100 µM

## CN(C)CCNC(=O)c1cccc2[nH]c(-c3ccccn3)nc12
XF 498 CNS
  TGI: > 100 µM
HCC-2998 colon
  TGI: > 100 µM
LOX IMVI melanoma
  TGI: > 90.1 µM
HCT-15 colon
  TGI: > 100 µM
HL-60(TB) leukemia
  TGI: > 78.7 µM
OVCAR-4 ovarian
  TGI: > 78.6 µM
RXF 393 renal
  TGI: > 100 µM
NCI-H460 lung
  TGI: > 58.4 µM
P388/ADR leukemia
  TGI: 53.5 µM
OVCAR-3 ovarian
  TGI: > 100 µM
MCF7 breast
  TGI: > 100 µM
SN12K1 renal
  TGI: > 100 µM
M19-MEL melanoma
  TGI: > 91.8 µM
SF-295 CNS
  TGI: > 100 µM
HOP-62 NSCLC
  TGI: > 90.8 µM
SK-MEL-28 melanoma
  TGI: > 58 µM
SW-620 colon
  TGI: > 100 µM
HT29 colon
  TGI: > 66.7 µM
KM20L2 colon
  TGI: > 100 µM
OVCAR-8 ovarian
  TGI: > 100 µM
SNB-78 CNS
  TGI: > 100 µM
UACC-257 melanoma
  TGI: > 93.6 µM
KM12 colon
  TGI: > 100 µM
NCI/ADR-RES ovarian
  TGI: > 87.7 µM
DMS 114 small cell lung
  TGI: > 80.2 µM
CCRF-CEM leukemia
  TGI: > 100 µM
K-562 leukemia
  TGI: > 100 µM
IGROV1 ovarian
  TGI: > 100 µM
UO-31 renal
  TGI: > 72.4 µM
U251 CNS
  TGI: > 100 µM
MALME-3M melanoma
  TGI: > 65.4 µM
HOP-18 NSCLC
  TGI: > 87 µM
COLO 205 colon
  TGI: 33.6 µM
NCI-H226 lung
  TGI: 60.8 µM
MOLT-4 leukemia
  TGI: 70.6 µM
DMS 273 small cell lung
  TGI: > 72.2 µM
NCI-H23 lung
  TGI: > 100 µM
DLD-1 colon
  TGI: > 100 µM
UACC-62 melanoma
  TGI: 42.7 µM
HOP-92 NSCLC
  TGI: 80.8 µM
OVCAR-5 ovarian
  TGI: > 100 µM
A549 NSCLC
  TGI: > 100 µM
SN12C renal
  TGI: > 100 µM
HCT-116 colon
  TGI: > 65.2 µM
SF-539 CNS
  TGI: > 100 µM
EKVX NSCLC
  TGI: > 100 µM
CAKI-1 renal
  TGI: 78.1 µM
SK-MEL-2 melanoma
  TGI: > 100 µM
SK-MEL-5 melanoma
  TGI: 48.7 µM
NCI-H522 lung
  TGI: > 63.8 µM
P388 leukemia
  TGI: 34.7 µM
A498 renal
  TGI: > 94.8 µM
SK-OV-3 ovarian
  TGI: > 100 µM
SNB-19 CNS
  TGI: > 100 µM
SF-268 CNS
  TGI: > 59.3 µM
SNB-75 CNS
  TGI: 92.8 µM
RPMI-8226 leukemia
  TGI: 62.3 µM
